The results in this text go back to patent US8399521B2, “Methods of treating skin with aromatic skin-active ingredients” (Mary Kay Inc., priority 2008, dated 2013).

One test relates to TNF-α. Description: TNF-α secretion by PMA-treated human keratinocytes (ELISA). The test is classed as cell-based. Particulars: 0.01% test compound; PMA 10 ng/ml, 6 hours; % change in secreted TNF-α, negative = reduction; Table 2. From the text:
Tumor necrosis factor alpha (TNF-α) assay: The prototype ligand of the TNF superfamily, TNF-α, is a pleiotropic cytokine that plays a central role in inflammation. Increase in its expression is associated with an up regulation in pro-inflammatory activity. This bioassay analyzes the effect of compounds on the production of TNF-α by human epidermal keratinocytes. The endpoint of this assay is a spectrophotometric measurement that reflects the presence of TNF-α and cellular viability. The assay employs the quantitative sandwich enzyme immunoassay technique whereby a monoclonal antibody specific for TNF-α has been pre-coated onto a microplate. Standards and samples are pipetted into the wells and any TNF-α present is bound by the immobilized antibody. After washing away any unbound substances, an enzyme-linked polyclonal antibody specific for TNF-α is added to the wells. Following a wash to remove any unbound antibody-enzyme reagent, a substrate solution is added to the wells and color develops in proportion to the amount of TNF-α bound in the initial step using a microplate reader for detection at 450 nm. The color development is stopped and the intensity of the color is measured.
Subconfluent normal human adult keratinocytes (Cascade Biologics) cultivated in EpiLife standard growth medium (Cascade Biologics) at 37° C. in 5% CO2, were treated with PMA (10 ng/ml, Sigma Chemical, #P1585-1MG) and test compounds for 6 hours. […] Following incubation, cell culture medium was collected and the amount of TNF-a secretion quantified using a sanwhich enzyme linked immuno-sorbant assay (ELISA) from R&D Systems ([…]). Following all manufacturer instructions, medium from treated cells was incubated with antibodies directed against human TNF-α which were bound to microtiter plates. The amount of TNF-α protein was quantified by comparison of optical density units to standard concentrations of purified TNF-α protein. Values are calculated as % change in the amount of TNF-α protein secreted between control and treated samples. […]
In general terms: ELISA stands for enzyme-linked immunosorbent assay.

The target of the next test is T1, 15-lipoxygenase (Glycine max, UniProt P08170).
T1 construct: purchased Cayman Chemical 760700
T1 sequence (P08170 1-839): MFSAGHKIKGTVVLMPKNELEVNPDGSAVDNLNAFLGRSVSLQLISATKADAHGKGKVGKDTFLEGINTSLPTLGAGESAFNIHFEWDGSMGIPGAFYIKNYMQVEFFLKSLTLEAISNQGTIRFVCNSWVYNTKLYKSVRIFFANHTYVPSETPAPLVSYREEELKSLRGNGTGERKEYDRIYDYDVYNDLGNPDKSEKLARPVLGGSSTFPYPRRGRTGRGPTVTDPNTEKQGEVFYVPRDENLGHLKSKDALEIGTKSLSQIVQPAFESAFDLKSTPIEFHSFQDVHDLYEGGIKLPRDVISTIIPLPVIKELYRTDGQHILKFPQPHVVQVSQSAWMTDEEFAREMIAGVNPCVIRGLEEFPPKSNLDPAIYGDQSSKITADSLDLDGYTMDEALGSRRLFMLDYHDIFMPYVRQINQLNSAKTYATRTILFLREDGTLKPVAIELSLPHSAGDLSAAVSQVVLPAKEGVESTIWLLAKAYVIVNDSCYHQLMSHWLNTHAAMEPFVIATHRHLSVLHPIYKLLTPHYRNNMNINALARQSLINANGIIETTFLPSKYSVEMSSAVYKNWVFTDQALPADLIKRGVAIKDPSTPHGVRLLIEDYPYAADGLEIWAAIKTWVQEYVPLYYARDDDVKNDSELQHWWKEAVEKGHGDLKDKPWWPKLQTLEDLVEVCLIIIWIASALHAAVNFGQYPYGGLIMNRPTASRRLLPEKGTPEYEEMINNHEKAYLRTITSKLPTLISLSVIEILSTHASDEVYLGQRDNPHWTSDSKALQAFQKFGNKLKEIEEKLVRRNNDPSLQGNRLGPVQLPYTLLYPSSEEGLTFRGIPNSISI
Put plainly: Lipoxygenase (LO) inhibition assay. Format: biochemical. The settings on record: 0.1% test compound; negative = inhibition vs non-treated control; Table 2. How it is done: Lipoxygenase (LO) assay: An in vitro lipoxygenase (LO) inhibition assay. LOs are non-heme iron-containing dioxygenases that catalyze the addition of molecular oxygen to fatty acids. Linoleate and arachidonate are the main substrates for LOs in plants and animals. […] This assay provides an accurate and convenient method for screening lipoxygenase inhibitors by measuring the hydroperoxides generated from the incubation of a lipoxygenase (5-, 12-, or 15-LO) with arachidonic acid.
Following incubation, arachidonic acid was added to initiate the reaction and mixtures incubated for an additional 10 min at room temperature. Colorimetric substrate was added to terminate catalysis and color progression was evaluated by fluorescence plate reading at 490 nm. The percent inhibition of lipoxyganse activity was calculated compared to non-treated controls to determine the ability of test compounds to inhibit the activity of purified enzyme.

Take “3-(4-ethylphenyl)-2,2-dimethylpropanal and 3-(2-ethylphenyl)-2,2-dimethylpropanal [Floralozone]”: the “TNF-α Inhibition (0.01%)” value in the test on TNF-α was −33.20%.

With `CCCCCCCCC(C)C=O` (stereo not shown) [Aldehyde C-11 MOA, 2-methyldecanal], in the test with TNF-α, the “TNF-α Inhibition (0.01%)” value was −38.68%. Regarding `CCCCCC/C=C/C(=O)OC` [Neofolione, methyl non-2-enoate], the “LO Inhibition (0.1%)” value on 15-lipoxygenase is given as −27.46%. For the same molecule, the “TNF-α Inhibition (0.01%)” value in the test on TNF-α is on record as −53.90%.
